Laboratory results reported in US20220296613A1, “FOOD-INDEPENDENT DOSING OF CV-10155 TO TREAT GABAA DISORDERS” (priority 2021, published 2022).
Like-named read-outs stand apart in the source and are kept apart here.

How the values were obtained:
[1] = dog, in vivo, 1 mg/kg
α4β3δ GABAA receptors = α4β3δ GABAA receptors (Homo sapiens, UniProt P28472+P48169); test: Synchropatch electrophysiology, potentiation of extra synaptic GABAA receptors; type: cell-based
α1β2γ2 GABAA receptors = α1β2γ2 GABAA receptors (Homo sapiens, UniProt P14867+P47870); test: Synchropatch electrophysiology, potentiation of synaptic GABAA receptors; type: cell-based; conditions: for Emax: α1β2γ2 Synaptic receptors, Synchropatch electrophysiology, read-out: Emax - efficacy: % of potentiation
[2] = humans, cited from earlier work
[3] = humans, cited from earlier work; remark: listed apart in the source
[4] = humans, cited from earlier work; remark: listed apart in the source
Forced swim test = Forced swim test - Depression; type: in vivo, rodent; conditions: preclinical animal model
[5] = 30 mg, day 7 MAD (MTD), morning dosing

α1β2γ2 GABAA receptors, sequence (P14867 28-456): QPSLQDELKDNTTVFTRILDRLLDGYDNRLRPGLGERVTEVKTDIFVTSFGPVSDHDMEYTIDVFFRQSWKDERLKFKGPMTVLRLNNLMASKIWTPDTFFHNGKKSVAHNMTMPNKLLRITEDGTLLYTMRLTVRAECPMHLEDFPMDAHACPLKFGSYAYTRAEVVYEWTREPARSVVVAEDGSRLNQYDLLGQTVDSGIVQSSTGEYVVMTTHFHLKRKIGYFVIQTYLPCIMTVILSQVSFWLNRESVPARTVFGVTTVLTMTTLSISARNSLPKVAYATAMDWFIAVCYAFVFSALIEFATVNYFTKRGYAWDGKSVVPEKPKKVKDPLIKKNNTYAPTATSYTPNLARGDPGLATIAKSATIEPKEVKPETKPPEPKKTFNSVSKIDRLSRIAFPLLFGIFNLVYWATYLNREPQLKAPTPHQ
α1β2γ2 GABAA receptors, sequence (P47870 25-512 limits assumed): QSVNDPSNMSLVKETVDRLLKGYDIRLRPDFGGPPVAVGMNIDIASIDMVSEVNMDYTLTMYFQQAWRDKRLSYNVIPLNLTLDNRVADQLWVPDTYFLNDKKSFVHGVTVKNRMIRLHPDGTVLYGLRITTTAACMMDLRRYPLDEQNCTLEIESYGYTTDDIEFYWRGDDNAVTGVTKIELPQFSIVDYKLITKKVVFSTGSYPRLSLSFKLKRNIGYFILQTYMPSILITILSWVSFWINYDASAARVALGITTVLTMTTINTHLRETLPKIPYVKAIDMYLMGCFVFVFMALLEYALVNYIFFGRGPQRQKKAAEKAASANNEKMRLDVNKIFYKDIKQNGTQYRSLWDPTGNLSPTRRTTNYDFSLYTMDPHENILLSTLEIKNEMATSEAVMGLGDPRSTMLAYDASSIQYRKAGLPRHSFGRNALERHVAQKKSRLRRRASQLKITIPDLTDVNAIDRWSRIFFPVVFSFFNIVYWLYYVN
α1β2γ2 GABAA receptors, sequence (P18507 40-475 partner): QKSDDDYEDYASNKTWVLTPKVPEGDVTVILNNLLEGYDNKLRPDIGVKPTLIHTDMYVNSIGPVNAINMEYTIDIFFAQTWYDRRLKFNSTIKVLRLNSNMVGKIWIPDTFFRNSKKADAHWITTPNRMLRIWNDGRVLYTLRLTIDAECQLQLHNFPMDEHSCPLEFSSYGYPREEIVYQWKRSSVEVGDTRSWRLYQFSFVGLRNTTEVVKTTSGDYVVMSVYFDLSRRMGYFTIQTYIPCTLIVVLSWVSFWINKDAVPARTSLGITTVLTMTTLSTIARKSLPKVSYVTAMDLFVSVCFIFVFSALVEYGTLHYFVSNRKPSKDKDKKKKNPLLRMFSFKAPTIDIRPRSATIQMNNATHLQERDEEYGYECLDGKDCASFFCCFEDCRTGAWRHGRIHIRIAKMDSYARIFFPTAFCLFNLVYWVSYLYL
α4β3δ GABAA receptors, sequence (P48169 36-554): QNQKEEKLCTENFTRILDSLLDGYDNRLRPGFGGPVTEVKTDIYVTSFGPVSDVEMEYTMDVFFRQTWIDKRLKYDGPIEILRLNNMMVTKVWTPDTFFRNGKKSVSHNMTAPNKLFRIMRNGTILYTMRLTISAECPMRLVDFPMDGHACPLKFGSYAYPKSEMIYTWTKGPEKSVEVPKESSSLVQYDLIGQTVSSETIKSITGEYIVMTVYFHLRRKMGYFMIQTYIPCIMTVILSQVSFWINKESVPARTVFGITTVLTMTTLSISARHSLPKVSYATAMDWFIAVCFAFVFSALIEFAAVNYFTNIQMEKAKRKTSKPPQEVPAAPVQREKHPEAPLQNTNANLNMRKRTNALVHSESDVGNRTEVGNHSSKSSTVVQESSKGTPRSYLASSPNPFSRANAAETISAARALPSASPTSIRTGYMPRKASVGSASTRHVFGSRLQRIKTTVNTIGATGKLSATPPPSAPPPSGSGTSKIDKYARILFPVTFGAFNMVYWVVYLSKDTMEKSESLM
α4β3δ GABAA receptors, sequence (P28472 26-473): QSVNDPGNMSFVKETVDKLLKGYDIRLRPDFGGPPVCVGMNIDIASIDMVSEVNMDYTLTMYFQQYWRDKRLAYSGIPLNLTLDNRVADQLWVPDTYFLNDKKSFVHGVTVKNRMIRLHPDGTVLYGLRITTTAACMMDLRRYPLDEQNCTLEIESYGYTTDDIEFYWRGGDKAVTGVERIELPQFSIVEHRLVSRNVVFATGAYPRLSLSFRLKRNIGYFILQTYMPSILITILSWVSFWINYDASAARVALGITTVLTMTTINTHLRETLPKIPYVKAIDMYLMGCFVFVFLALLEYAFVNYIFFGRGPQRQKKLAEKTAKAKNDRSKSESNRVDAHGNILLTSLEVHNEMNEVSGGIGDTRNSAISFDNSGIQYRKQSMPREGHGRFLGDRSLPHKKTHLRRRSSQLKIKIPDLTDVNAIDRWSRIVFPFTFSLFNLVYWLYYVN
α4β3δ GABAA receptors, sequence (O14764 25-452 partner): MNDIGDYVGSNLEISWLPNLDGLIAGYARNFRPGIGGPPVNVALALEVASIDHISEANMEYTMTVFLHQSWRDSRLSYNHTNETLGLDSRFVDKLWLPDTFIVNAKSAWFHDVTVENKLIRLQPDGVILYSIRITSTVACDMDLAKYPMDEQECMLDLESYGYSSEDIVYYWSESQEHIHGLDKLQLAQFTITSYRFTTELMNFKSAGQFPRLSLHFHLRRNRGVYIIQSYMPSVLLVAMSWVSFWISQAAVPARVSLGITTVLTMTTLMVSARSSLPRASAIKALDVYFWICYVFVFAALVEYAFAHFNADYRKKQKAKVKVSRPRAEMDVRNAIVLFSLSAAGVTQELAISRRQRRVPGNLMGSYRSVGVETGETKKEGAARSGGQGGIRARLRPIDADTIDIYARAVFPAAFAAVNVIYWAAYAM

SMILES: C[C@@]1(O)CC[C@@]2(C)[C@@H](CC[C@@H]3[C@@H]2CC[C@]2(C)[C@@H](C(=O)Cn4cc(C#N)cn4)CC[C@@H]32)C1 [CV-10155 (30% HPbCD)]
- Cmax ([1]; iv): 1732 ng/mL
- T½ ([1]; iv): 13.93 h
- Cmax ([1]; po): 510 ng/mL
- Tmax ([1]; po): 0.75 h
- T½ ([1]; po): 13.62 h

SMILES: C[C@@]1(O)CC[C@@]2(C)[C@@H](CC[C@@H]3[C@@H]2CC[C@]2(C)[C@@H](C(=O)Cn4cc(C#N)cn4)CC[C@@H]32)C1 [CV-10155 (Labrosol)]
- Cmax ([1]; po): 266 ng/mL
- Tmax ([1]; po): 0.625 h
- T½ ([1]; po): 18.93 h

SMILES: CC(=O)[C@H]1CC[C@H]2[C@@H]3CC[C@H]4C[C@](C)(O)CC[C@]4(C)[C@H]3CC[C@]12C [Ganaxolone, ganaxolone]
- EC50 (α4β3δ GABAA receptors): 213 nM
- EC50 (α1β2γ2 GABAA receptors): 90 nM
- Emax (α1β2γ2 GABAA receptors): 745%

SMILES: C[C@@]1(O)CC[C@H]2[C@H](CC[C@@H]3[C@@H]2CC[C@]2(C)[C@@H](C(=O)Cn4cc(C#N)cn4)CC[C@@H]32)C1 [Sage-217]
- EC50 (α4β3δ GABAA receptors): 148 nM
- ratio of Cmax/trough on day 7 ([2]; 30 mg daily in the evening in a fed state): 5.88
- AUC0_inf [2, 5]: 833.2 h*ng/m1
- Cmax [2, 5]: 115.2 ng/mL
- Cmin [2, 5]: 12.46 ng/mL
- Ratio (Cmax/Cmin) [2, 5]: 9.24
- T1/2 [2, 5]: 15.27 h
- Tmax [2, 5]: 1 h
- MTD, multiple ascending dose (MAD) ([2]; morning dosing): SAGE-217 30mg
- AUC(0-inf) ([3]; 55 mg SAD MTD): 1633 ng·h/mL
- Cmax ([3]; 55 mg SAD MTD): 149.9 ng/mL
- T1/2 ([3]; 55 mg SAD MTD): 17.02 h
- Tmax ([3]; 55 mg SAD MTD): 1.24 h
- MTD, single ascending dose (SAD) [3]: SAGE-217 55 mg SAD MTD
- Any adverse event, % ([4]; 20 mg (n-188)): 50.0%
- Diarrhea, % ([4]; 20 mg (n-188)): 5.9%
- Dizziness, % ([4]; 20 mg (n-188)): 7.4%
- Fatigue, % ([4]; 20 mg (n-188)): 1.6%
- Headache, % ([4]; 20 mg (n-188)): 11.2%
- Nausea, % ([4]; 20 mg (n-188)): 5.3%
- Sedation, % ([4]; 20 mg (n-188)): 5.9%
- Somnolence, % ([4]; 20 mg (n-188)): 5.9%
- Any adverse event, % ([4]; 30 mg (n-192)): 54.2%
- Diarrhea, % ([4]; 30 mg (n-192)): 6.3%
- Dizziness, % ([4]; 30 mg (n-192)): 5.7%
- Fatigue, % ([4]; 30 mg (n-192)): 6.8%
- Headache, % ([4]; 30 mg (n-192)): 6.3%
- Nausea, % ([4]; 30 mg (n-192)): 3.6%
- Sedation, % ([4]; 30 mg (n-192)): 4.7%
- Somnolence, % ([4]; 30 mg (n-192)): 6.8%
- EC50 (α1β2γ2 GABAA receptors): 189 nM
- Emax (α1β2γ2 GABAA receptors): 1000%
- Forced swim test - Depression: doses tested, * = significantly efficacious dose (Forced swim test): 1 - 3* mg/kg
